Laboratory results from patent publication US20050214279A1, “Methods for stimulating human leukocytes to kill bacteria, yeast and fungi in biofilms that have formed in/on prosthetic devices, catheters, tissues and organs in vivo” (priority 2003, published 2005).

Tested on: human neutrophils
Experiment: Neutrophil phagocytosis and killing of S. epidermidis in fibrin gels
Format: cell-based
Conditions: bacteria 10^5 to 2×10^8 CFU/ml, neutrophils 10^6 to 4×10^8/ml (data not shown)
Protocol: To facilitate processing for microscopy we used 50% autologous plasma to form gels (40 μl in volume). To increase the frequency of neutrophils and S. epidermidis interactions the gels contained 4μ 10^8 neutrophils/ml (pre-incubated in medium with or without 20 μM cytochalasin D for 15 min at room temperature), 2μ 10^8 CFU/ml S. epidermidis, and 20 μM cytochalasin D, where indicated. The gels were incubated for 60 min at 37° C., fixed with 2.5% glutaraldehyde at 4° C., and then with 1% OsO4, stained en block with 1% uranyl acetate, dehydrated, and embedded in Epon. Sections ˜[…] thick were cut, stained sequentially with lead citrate and uranyl acetate, and examined in a Phillips 1200 transmission electron microscope. […]
In stirred suspensions, neutrophils must phagocytose bacteria to kill them. […] Second, cytochalasin D, which facilitates neutrophil secretions, blocked both phagocytosis (as measured by electron microscopy), and killing of S. epidermidis in fibrin gels at all bacterial (10^5 to 2×10^8 CFU/ml) and neutrophil concentrations (10^6 to 4×10^8/ml) tested (data not shown). […]

C=C1[C@@H](C)[C@H]2[C@H](Cc3ccccc3)NC(=O)[C@]23[C@H](OC(C)=O)/C=C/[C@@](C)(O)C(=O)[C@@H](C)C/C=C/[C@H]3[C@@H]1O [cytochalasin D]
killing of S. epidermidis in fibrin gels: blocked | phagocytosis (as measured by electron microscopy): blocked
